Reference: US10513694B2, “Thienopyrrole compounds and uses thereof” (PROMEGA CORPORATION, priority 2015, dated 2019)
Where “and” joins values, the source holds several entries; their conditions need not be identical. Equal entries are not always repeated. Structures can show the parent of a compound that is named as a salt.

Target: NANOLUC® enzyme (Oplophorus gracilirostris, UniProt Q9GV45, A31E/A60N/A81I/F95D/I117V/K70R/L54V/L99Q/M102K/N193R/P142E/Q151K/Q38R/Q45L/V71I/Y165I)
Experiment: Inhibitor IC50 determination (NANOLUC enzyme, furimazine)
Format: biochemical
Details: IC50 (uM), 0.4 ng/ml NANOLUC enzyme, final furimazine 10 uM (at Km)
Method: The following example provides the IC50 values for the compounds disclosed herein. See Table 5 NANOLUC® enzyme was diluted to 0.4 ng/ml in CO2 independent media+10% FBS to make the detection reagent. A 3× dilution series of each inhibitor was then made in the detection reagent. A “no inhibitor” control was also made for each sample. 50 ul of each inhibitor dilution was mixed with 50 ul of NanoGlo buffer containing 20 uM furimazine. (Final furimazine concentration is 10 uM which is at Km.), and luminescence measured. Each sample was normalized to the “no inhibitor” control. The […] values were then determined using GraphPad Prism (log [inhibitor] vs. normalized response).

Chain of NANOLUC® enzyme (Q9GV45 28-196 with tags or gaps with the stated changes limits assumed): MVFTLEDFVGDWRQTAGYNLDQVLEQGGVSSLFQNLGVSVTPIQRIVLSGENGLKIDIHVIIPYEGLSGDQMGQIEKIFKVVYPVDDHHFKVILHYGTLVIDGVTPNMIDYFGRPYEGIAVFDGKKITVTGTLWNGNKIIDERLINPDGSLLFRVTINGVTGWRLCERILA

| SMILES | IC50 |
| --- | --- |
| CCN(C(=O)Cn1c(C(=O)N[C@H]2CC[C@@H](C(=O)NCCCCCC(=O)O)CC2)cc2sccc21)c1cccc(C)c1 [JRW-0264, 6-(cis-4-(4-(2-(ethyl(m-tolyl)amino)-2-oxoethyl)-4H-thieno[3,2-b]pyrrole-5-carboxamido)cyclohexane-1-carboxamido)hexanoic acid] | 0.24 µM |
| CCN(C(=O)Cn1c(C(=O)N[C@H]2CC[C@H](C(=O)OC)CC2)cc2sccc21)c1cccc(N(C)C)c1 [JRW-0478, Methyl trans-4-(4-(2-((3-(dimethylamino)phenyl)(ethyl)amino)-2-oxoethyl)-4H-thieno[3,2-b]pyrrole-5-carboxamido)cyclohexane-1-carboxylate] | 0.065 µM |
| CCN(C(=O)Cn1c(C(=O)N[C@H]2CC[C@H](C(=O)OC)CC2)cc2sccc21)c1cccc(OC)c1 [JRW-0327, Methyl trans-4-(4-(2-(ethyl(3-methoxyphenyl)amino)-2-oxoethyl)-4H-thieno[3,2-b]pyrrole-5-carboxamido)cyclohexane-1-carboxylate] | 0.11 µM |
| CCN(C(=O)Cn1c(C(=O)N[C@H]2CC[C@H](C(=O)OC)CC2)cc2ccsc21)c1cccc(C)c1 [JRW-0463, Methyl trans-4-(6-(2-(ethyl(m-tolyl)amino)-2-oxoethyl)-6H-thieno[2,3-b]pyrrole-5-carboxamido)cyclohexane-1-carboxylate] | 0.71 µM |
| CCc1cccc(N(CC)C(=O)Cn2c(C(=O)N[C@H]3CC[C@H](C(=O)OC)CC3)cc3sccc32)c1 [JRW-0326, Methyl trans-4-(4-(2-(ethyl(3-ethylphenyl)amino)-2-oxoethyl)-4H-thieno[3,2-b]pyrrole-5-carboxamido)cyclohexane-1-carboxylate] | 0.0039 µM |
| CCc1cccc(N(CC)C(=O)Cn2c(C(=O)N[C@H]3CC[C@H](C(=O)NCCCCCCS(=O)(=O)O)CC3)cc3ccccc32)c1 [JRW-0434, Sodium 6-(trans-4-(1-(2-(ethyl(3-ethylphenyl)amino)-2-oxoethyl)-1H-indole-2-carboxamido)cyclohexane-1-carboxamido)hexane-1-sulfonate] | 0.0019 µM |
| CCN(C(=O)Cn1c(C(=O)N[C@H]2CC[C@H](C(=O)OC)CC2)cc2sccc21)c1cccc(CO)c1 [JRW-0461, Methyl trans-4-(4-(2-(ethyl(3-(hydroxymethyl)phenyl)amino)-2-oxoethyl)-4H-thieno[3,2-b]pyrrole-5-carboxamido)cyclohexane-1-carboxylate] | 0.077 µM |
| CCN(C(=O)Cn1c(C(=O)N[C@H]2CC[C@H](C(=O)NC3CCN(C(C)=O)CC3)CC2)cc2sccc21)c1cccc(C)c1 [JRW-0195, N-(trans-4-((1-acetylpiperidin-4-yl)carbamoyl)cyclohexyl)-4-(2-(ethyl(m-tolyl)amino)-2-oxoethyl)-4H-thieno[3,2-b]pyrrole-5-carboxamide] | 0.48 µM |
| CCN(C(=O)Cn1c(C(=O)Nc2ccccc2)cc2sccc21)c1cccc(C)c1 [JRW-0143, 4-(2-(ethyl(m-tolyl)amino)-2-oxoethyl)-N-phenyl-4H-thieno[3,2-b]pyrrole-5-carboxamide] | 2.8 µM and 2.6 µM |
| CCN(C(=O)Cn1c(C(=O)N[C@H]2CC[C@H](C(=O)NCCCCCC(=O)OC)CC2)cc2sccc21)c1cccc(C)c1 [JRW-0145, methyl 6-(trans-4-(4-(2-(ethyl(m-tolyl)amino)-2-oxoethyl)-4H-thieno[3,2-b]pyrrole-5-carboxamido)cyclohexane-1-carboxamido)hexanoate] | 0.12 µM |
| CCN(C(=O)Cn1c(C(=O)NCCCCCCCC(=O)O)cc2sccc21)c1cccc(C)c1 [JRW-0198, 8-(4-(2-(ethyl(m-tolyl)amino)-2-oxoethyl)-4H-thieno[3,2-b]pyrrole-5-carboxamido)octanoic acid] | 1 µM |
| COCCOCCN(C(=O)Cn1c(C(=O)N[C@H]2CC[C@H](C(=O)OC)CC2)cc2sccc21)c1cccc(C)c1 [JRW-0110, Methyl-trans-4-(4-(2-((2-(2-methoxyethoxy)ethyl)(m-tolyl)amino)-2-oxoethyl)-4H-thieno[3,2-b]pyrrole-5-carboxamido)cyclohexane-1-carboxylate] | 3 µM |
| CCN(C(=O)Cn1c(C(=O)N[C@H]2CC[C@H](C(=O)NCCN(C)C)CC2)cc2sccc21)c1cccc(C)c1 [JRW-0044, N-(trans-4-((2-(dimethylamino)ethyl)carbamoyl)cyclohexyl)-4-(2-(ethyl(m-tolyl)amino)-2-oxoethyl)-4H-thieno[3,2-b]pyrrole-5-carboxamide] | 16.8 µM |
| CCN(C(=O)Cn1c(C(=O)N[C@H]2CC[C@H](C(=O)OC)CC2)cc2sccc21)c1ccc(C)cc1 [JRW-0334, Methyl trans-4-(4-(2-(ethyl(p-tolyl)amino)-2-oxoethyl)-4H-thieno[3,2-b]pyrrole-5-carboxamido)cyclohexane-1-carboxylate] | 1.3 µM |
| CCN(C(=O)Cn1c(C(=O)N[C@H]2CC[C@H](C(=O)OC)CC2)cc2occc21)c1cccc(C)c1 [JRW-360, Methyl trans-4-(4-(2-(ethyl(m-tolyl)amino)-2-oxoethyl)-4H-furo[3,2-b]pyrrole-5-carboxamido)cyclohexane-1-carboxylate] | 0.61 µM |
| CCc1cccc(N(CC)C(=O)Cn2c(C(=O)N[C@H]3CC[C@H](C(=O)OC)CC3)cc3ccccc32)c1 [JRW-0424, Methyl trans-4-(1-(2-(ethyl(3-ethylphenyl)amino)-2-oxoethyl)-1H-indole-2-carboxamido)cyclohexane-1-carboxylate] | 0.005 µM |
| CCc1cccc(N(CC)C(=O)Cn2c(C(=O)N[C@H]3CC[C@H](C(=O)NCCCCCCO)CC3)cc3ccccc32)c1 [JRW-0430, 1-(2-(Ethyl(3-ethylphenyl)amino)-2-oxoethyl)-N-(trans-4-((6-hydroxyhexyl)carbamoyl)cyclohexyl)-1H-indole-2-carboxamide] | 0.0021 µM |
| CCN(C(=O)Cn1c(C(=O)N[C@H]2CC[C@H](C(=O)NCCCCCCN)CC2)cc2sccc21)c1cccc(C)c1 [JRW-0241, N-(trans-4-((6-aminohexyl)carbamoyl)cyclohexyl)-4-(2-(ethyl(m-tolyl)amino)-2-oxoethyl)-4H-thieno[3,2-b]pyrrole-5-carboxamide hydrochloride] | 0.063 µM |
| CCc1cccc(N(CC)C(=O)Cn2c(C(=O)N[C@H]3CC[C@H](C(=O)NCCCCCCO)CC3)cc3sccc32)c1 [JRW-0429, 4-(2-(Ethyl(3-ethylphenyl)amino)-2-oxoethyl)-N-(trans-4-((6-hydroxyhexyl)carbamoyl)cyclohexyl)-4H-thieno[3,2-b]pyrrole-5-carboxamide] | 0.0021 µM |
| CCN(C(=O)Cn1c(C(=O)N[C@H]2CC[C@H](C(=O)OC)CC2)cc2sccc21)c1cccc(C#N)c1 [JRW-0321, Methyl trans-4-(4-(2-((3-cyanophenyl)(ethyl)amino)-2-oxoethyl)-4H-thieno[3,2-b]pyrrole-5-carboxamido)cyclohexane-1-carboxylate] | 0.16 µM |
| Cc1cccc(NC(=O)Cn2c(C(=O)NC3CCCCC3)cc3sccc32)c1 [JRW-0081, N-cyclohexyl-4-(2-oxo-2-(m-tolylamino)ethyl)-4H-thieno[3,2-b]pyrrole-5-carboxamide] | 19.4 µM |
| CCN(C(=O)Cn1c(C(=O)N[C@H]2CC[C@H](C(=O)OC)CC2)cc2sccc21)c1ccccc1C [JRW-0330, Methyl trans-4-(4-(2-(ethyl(o-tolyl)amino)-2-oxoethyl)-4H-thieno[3,2-b]pyrrole-5-carboxamido)cyclohexane-1-carboxylate] | 0.7 µM |
| CCN(C(=O)Cn1c(C(=O)N[C@H]2CC[C@H](C(=O)OC)CC2)cc2sccc21)c1ccc(CO)cc1 [JRW-0335, Methyl trans-4-(4-(2-(ethyl(4-(hydroxymethyl)phenyl)amino)-2-oxoethyl)-4H-thieno[3,2-b]pyrrole-5-carboxamido)cyclohexane-1-carboxylate] | 1.9 µM |
| CCN(C(=O)Cn1c(C(=O)N[C@H]2CC[C@H](C(=O)O)CC2)cc2sccc21)c1cccc(C)c1 [JRW-0034, trans-4-(4-(2-(ethyl(m-tolyl)amino)-2-oxoethyl)-4H-thieno[3,2-b]pyrrole-5-carboxamido)cyclohexane-1-carboxylic acid] | 0.059 µM |
| CCCCCCN(C(=O)Cn1c(C(=O)NC2CCCCC2)cc2sccc21)c1cccc(C)c1 [JRW-0148, N-cyclohexyl-4-(2-(hexyl(m-tolyl)amino)-2-oxoethyl)-4H-thieno[3,2-b]pyrrole-5-carboxamide] | 5.3 µM |
| CCN(C(=O)Cn1c(C(=O)N[C@H]2CC[C@H](C(=O)OC)CC2)cc2sccc21)c1cccc(CBr)c1 [JRW-0466, Methyl trans-4-(4-(2-((3-(bromomethyl)phenyl)(ethyl)amino)-2-oxoethyl)-4H-thieno[3,2-b]pyrrole-5-carboxamido)cyclohexane-1-carboxylate] | 0.0018 µM |
| CCN(C(=O)Cn1c(C(=O)N[C@H]2CC[C@H](C(=O)OC)CC2)cc2sccc21)c1cccc(CC(C)C)c1 [JRW-0508, Methyl trans-4-(4-(2-(ethyl(3-isobutylphenyl)amino)-2-oxoethyl)-4H-thieno[3,2-b]pyrrole-5-carboxamido)cyclohexane-1-carboxylate] | 0.027 µM |
| CCN(C(=O)Cn1c(C(=O)N[C@H]2CC[C@H](C(=O)OC)CC2)cc2sccc21)c1ccccc1 [JRW-0318, Methyl trans-4-(4-(2-(ethyl(phenyl)amino)-2-oxoethyl)-4H-thieno[3,2-b]pyrrole-5-carboxamido)cyclohexane-1-carboxylate] | 0.11 µM |
| CCN(C(=O)Cn1c(C(=O)N[C@H]2CC[C@H](C(=O)NCCCCCCCC(=O)O)CC2)cc2sccc21)c1cccc(C)c1 [JRW-0188, 8-(trans-4-(4-(2-(ethyl(m-tolyl)amino)-2-oxoethyl)-4H-thieno[3,2-b]pyrrole-5-carboxamido)cyclohexane-1-carboxamido)octanoic acid] | 0.022 µM |
